Results taken from patent US11414436B2, “Non-coordinating anion type activators containing cation having large alkyl groups” (ExxonMobil Chemical Patents Inc., priority 2018, dated 2022).
Where “and” joins values, the source holds several entries; their conditions need not be identical. Identical values can stand only once.

Assays:
[1] = Propylene homopolymerization in parallel pressure reactor, MCN-1 with ammonium borate activators; settings: for activity: isohexane; for average catalyst activity, comparison of the four activators (FIG. 6): MCN-1, polypropylene at 100° C., Table 7 runs
[2] = Ethylene-octene copolymerization in parallel pressure reactor, non-metallocene catalyst CAT-1; settings: catalyst CAT-1 20 nmol; activator 1.1 equiv; 100° C.; 135 psi; 1-octene 100 uL; TNOAL 0.5 umol
Protocol: (§1) Solutions of the metal complexes and activators were prepared in a drybox using toluene or methylcyclohexane. Concentrations were typically 0.2 mmol/L. Tri-n-octylaluminum (TNOAL, neat, AkzoNobel) was typically used as a scavenger. Concentration of the TNOAL solution in toluene ranged from 0.5 to 2.0 mmol/L.
(§2) Polymerizations were carried out in a parallel pressure reactor, as generally described in U.S. Pat. Nos. 6,306,658; 6,455,316; 6,489,168; WO 00/09255; and Murphy, V. et al. (2003) “A Fully Integrated High-Throughput Screening Methodology for the Discovery of New Polyolefin Catalysts: Discovery of a New Class of High Temperature Single-Site Group (IV) Copolymerization Catalysts,” J. Am. Chem. Soc., v. 125, pp. 4306-4317, each of which is fully incorporated herein by reference. […] Although the specific quantities, temperatures, solvents, reactants, reactant ratios, pressures, and other variables are frequently changed from one polymerization run to the next, the following describes a typical polymerization performed in a parallel pressure reactor.
(§3) Ethylene-Octene Copolymerization (EO).
(§4) A pre-weighed glass vial insert and disposable stirring paddle were fitted to each reaction vessel of the reactor, which contains 48 individual reaction vessels. The reactor was then closed and purged with ethylene. Each vessel was charged with enough solvent (typically isohexane) to bring the total reaction volume, including the subsequent additions, to the desired volume, typically 5 mL. 1-octene, if required, was injected into the reaction vessel and the reactor was heated to the set temperature and pressurized to the predetermined pressure of ethylene, while stirring at 800 rpm. The aluminum compound (such as tri-n-octylaluminum) in toluene was then injected as scavenger followed by addition of the activator solution (typically 1.0-1.2 molar equivalents).
(§5) The catalyst (and activator solutions for Run A) were all prepared in toluene. The catalyst solution (typically 0.020-0.080 μmol of metal complex) was injected into the reaction vessel and the polymerization was allowed to proceed until a pre-determined amount of ethylene (quench value typically 20 psi) had been used up by the reaction. Alternatively, the reaction may be allowed to proceed for a set amount of time (maximum reaction time typically 30 minutes). Ethylene was added continuously (through the use of computer controlled solenoid valves) to the autoclaves during polymerization to maintain reactor gauge pressure (P setpt, +/−2 psig) and the reactor temperature (T) was monitored and typically maintained within +/−1° C. The reaction was quenched by pressurizing the vessel with compressed air. After the reactor was vented and cooled, the glass vial insert containing the polymer product and solvent was removed from the pressure cell and the inert atmosphere glove box, and the volatile components were removed using a Genevac HT-12 centrifuge and Genevac VC3000D vacuum evaporator operating at elevated temperature and reduced pressure. The vial was then weighed to determine the yield of the polymer product. The resultant polymer was analyzed by Rapid GPC (see below) to determine the molecular weight, by FT-IR (see below) to determine percent octene incorporation, and by DSC (see below) to determine melting point (Tm).
(§6) Equivalence is determined based on the mole equivalents relative to the moles of the transition metal in the catalyst complex.
(§7) Activators of the present disclosure can also be used for activating non-metallocene catalysts for polymerization of olefins. Table 4 illustrates copolymerization of ethylene and octene using activators of the present disclosure and non-metallocene catalysts (CAT-1, CAT-2, CAT-3, and CAT-4).

[3] = Ethylene-octene copolymerization in parallel pressure reactor, non-metallocene catalyst CAT-2; settings: catalyst CAT-2 20 nmol; activator 1.1 equiv; 100° C.; 135 psi; 1-octene 100 uL; TNOAL 0.5 umol
Protocol: as §1, §2, §3, §4, §5, §6, §7

[4] = Ethylene-octene copolymerization in parallel pressure reactor, non-metallocene catalyst CAT-3; settings: catalyst CAT-3 20 nmol; activator 1.1 equiv; 100° C.; 135 psi; 1-octene 100 uL; TNOAL 0.5 umol
Protocol: as §1, §2, §3, §4, §5, §6, §7

[5] = Ethylene-octene copolymerization in parallel pressure reactor, non-metallocene catalyst CAT-4; settings: catalyst CAT-4 20 nmol; activator 1.1 equiv; 100° C.; 135 psi; 1-octene 100 uL; TNOAL 0.5 umol
Protocol: as §1, §2, §3, §4, §5, §6, §7

[6] = Solubility studies of the activators (saturated solution in isohexane or methylcyclohexane); type: physicochemical; settings: methylcyclohexane
[7] = Activator Equiv 1.0, TNOAL 0.25 umol, MCN-1 30 nmol, 85° C., propylene 135 psi
[8] = Activator Equiv 1.0, TNOAL 0.50 umol, MCN-1 30 nmol, 85° C., propylene 135 psi
[9] = Activator Equiv 1.0, TNOAL 0.75 umol, MCN-1 30 nmol, 85° C., propylene 135 psi
[10] = Activator Equiv 1.2, TNOAL 0.25 umol, MCN-1 30 nmol, 85° C., propylene 135 psi
[11] = Activator Equiv 1.2, TNOAL 0.50 umol, MCN-1 30 nmol, 85° C., propylene 135 psi
[12] = Activator Equiv 1.2, TNOAL 0.75 umol, MCN-1 30 nmol, 85° C., propylene 135 psi
[13] = Activator Equiv 1.4, TNOAL 0.25 umol, MCN-1 30 nmol, 85° C., propylene 135 psi
[14] = Activator Equiv 1.4, TNOAL 0.50 umol, MCN-1 30 nmol, 85° C., propylene 135 psi
[15] = Activator Equiv 1.4, TNOAL 0.75 umol, MCN-1 30 nmol, 85° C., propylene 135 psi
[16] = Activator Equiv 1.6, TNOAL 0.25 umol, MCN-1 30 nmol, 85° C., propylene 135 psi
[17] = Activator Equiv 1.6, TNOAL 0.50 umol, MCN-1 30 nmol, 85° C., propylene 135 psi
[18] = Activator Equiv 1.6, TNOAL 0.75 umol, MCN-1 30 nmol, 85° C., propylene 135 psi
[19] = propylene 150 psi, 100° C., MCN-1 = 30 nmol, activator = 33 nmol, TNOAL 500 nmol

Compound	activity [1, 7]	activity [1, 8]	activity [1, 9]	activity [1, 10]	activity [1, 11]	activity [1, 12]	activity [1, 13]	activity [1, 14]	activity [1, 15]	activity [1, 16]	activity [1, 17]	activity [1, 18]	average catalyst activity, comparison of the four activators (FIG. 6) [1]	activity [1, 19]	activity [2]	activity [3]	activity [4]	activity [5]	Solubility limit in MeCy (wt % at 25° C.) [6] [wt %]	activity ([1]; propylene, 85 °C, 135 psi, MCN-1 = 20 nmol, activator = 20 nmol, TNOAL 500 nmol) [kg/mmol/h]
CCCCCCCCCCCCCCCCCC[NH+](CCCCCCCCCCCCCCCCCC)c1ccc(C)cc1.Fc1c(F)c(F)c2c(F)c([B-](c3c(F)c(F)c4c(F)c(F)c(F)c(F)c4c3F)(c3c(F)c(F)c4c(F)c(F)c(F)c(F)c4c3F)c3c(F)c(F)c4c(F)c(F)c(F)c(F)c4c3F)c(F)c(F)c2c1F [DOdTH-BF28, 4-methyl-N,N-dioctadecylbenzenaminium-BF28]	271 kg/mmol/h and 259 kg/mmol/h and 246 kg/mmol/h	212 kg/mmol/h and 194 kg/mmol/h and 175 kg/mmol/h	138 kg/mmol/h and 132 kg/mmol/h and 120 kg/mmol/h	354 kg/mmol/h and 295 kg/mmol/h and 281 kg/mmol/h	242 kg/mmol/h and 211 kg/mmol/h and 191 kg/mmol/h	168 kg/mmol/h and 142 kg/mmol/h and 134 kg/mmol/h	315 kg/mmol/h and 284 kg/mmol/h and 261 kg/mmol/h	225 kg/mmol/h and 186 kg/mmol/h and 180 kg/mmol/h	173 kg/mmol/h and 153 kg/mmol/h and 144 kg/mmol/h	283 kg/mmol/h and 267 kg/mmol/h	265 kg/mmol/h and 196 kg/mmol/h and 188 kg/mmol/h	174 kg/mmol/h and 150 kg/mmol/h and 134 kg/mmol/h	somewhat lower activity	138 kg/mmol/h and 153 kg/mmol/h and 101 kg/mmol/h	3873 kg/mmol/h and 3497 kg/mmol/h	1034 kg/mmol/h and 533 kg/mmol/h	838 kg/mmol/h and 829 kg/mmol/h	48 kg/mmol/h and 46 kg/mmol/h	35	
N,N-dimethylanilinium tetrakis(heptafluoronaphthalen-2-yl)borate [DMAH-BF28, reference compound]	604 kg/mmol/h and 502 kg/mmol/h	394 kg/mmol/h and 352 kg/mmol/h	233 kg/mmol/h and 212 kg/mmol/h	703 kg/mmol/h and 673 kg/mmol/h	506 kg/mmol/h and 459 kg/mmol/h	332 kg/mmol/h and 256 kg/mmol/h	709 kg/mmol/h and 677 kg/mmol/h	554 kg/mmol/h and 431 kg/mmol/h	370 kg/mmol/h and 334 kg/mmol/h	803 kg/mmol/h	511 kg/mmol/h and 467 kg/mmol/h	404 kg/mmol/h and 356 kg/mmol/h	highest average activities	175 kg/mmol/h and 231 kg/mmol/h and 160 kg/mmol/h and 121 kg/mmol/h and 211 kg/mmol/h and 188 kg/mmol/h and 190 kg/mmol/h	3494 kg/mmol/h and 3144 kg/mmol/h	1161 kg/mmol/h and 724 kg/mmol/h	808 kg/mmol/h and 691 kg/mmol/h	59 kg/mmol/h and 54 kg/mmol/h		138
